Here are results for 29 compounds from patent publication US9296745B2, “Diacylglycerol acyltransferase 2 inhibitors” (Pfizer Inc., priority 2012, dated 2016).

The test concerns the target Human DGAT2 (hDGAT2) (Homo sapiens (Human), UniProt Q96PD7). Kind of test: In vitro DGAT2 assay, IC50 determination with hDGAT2 membrane fraction. It counts as biochemical. The settings on record: read-out: DGAT2 IC50. The method, boiled down:
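CHAPS-solubilized membrane fraction of FLAG-tagged hDGAT2 from baculovirus-infected SF9 cells (0.01 mg/mL) in 100 mM Hepes-NaOH pH 7.4, 20 mM MgCl2, 200 nM methyl arachidonyl fluorophosphonate; compounds pre-incubated 20 min with 0.04% BSA. Reaction 40 min at room temperature, stopped with H3PO4. [^14C]tridecanoylglycerol in organic phase counted; 11-point geometric mean IC50.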

Setting [1] is: geometric mean, background for complete inhibition of DGAT2 obtained with 50 μM (1R,2R)-2-({3′-Fluoro-4′-[(6-fluoro-1,3-benzothiazol-2-yl)amino]-1,1′-biphenyl-4-yl}carbonyl)cyclopentanecarboxylic acid.

Structures are written as SMILES. Counter-ions that a name gives are not always drawn. Like-named read-outs stand apart in the source and are kept apart here.

Chain of Human DGAT2 (hDGAT2) (Q96PD7 whole entry): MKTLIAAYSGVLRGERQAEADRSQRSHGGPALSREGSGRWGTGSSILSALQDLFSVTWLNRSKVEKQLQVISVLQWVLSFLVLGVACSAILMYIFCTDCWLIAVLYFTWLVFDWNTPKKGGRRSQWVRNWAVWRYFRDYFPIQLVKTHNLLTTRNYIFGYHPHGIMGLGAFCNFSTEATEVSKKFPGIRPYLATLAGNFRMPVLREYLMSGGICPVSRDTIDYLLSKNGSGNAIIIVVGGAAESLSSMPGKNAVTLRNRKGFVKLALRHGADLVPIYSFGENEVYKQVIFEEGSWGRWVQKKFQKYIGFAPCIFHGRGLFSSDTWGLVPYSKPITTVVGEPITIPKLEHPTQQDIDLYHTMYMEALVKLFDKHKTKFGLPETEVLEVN

As a reminder, the IC50 is the concentration that gives 50% inhibition. Regarding `c1cc(-c2nc3ccc(N4CCC[C@H](c5nnc6n5CCC6)C4)nc3[nH]2)nc(C2CC2)c1` [Example 171, (S)-2-(6-cyclopropylpyridin-2-yl)-5-(3-(6,7-dihydro-5H-pyrrolo[2,1-c][1,2,4]triazol-3-yl)piperidin-1-yl)-3H-imidazo[4,5-b]pyridine], the IC50 under setting [1] is 161 nM.

For `NC(=O)c1cccc(-c2nc3ccc(N4CCC[C@@H](C(=O)N5CCCC5)C4)nc3[nH]2)n1` [Example 172, (R)-6-(5-(3-(Pyrrolidine-1-carbonyl)piperidin-1-yl)-3H-imidazo[4,5-b]pyridin-2-yl)picolinamide], under setting [1], the half-inhibitory concentration (IC50) worked out at 83 nM.

`CN(C)C(=O)c1cccc(-c2nc3ccc(N4CCC[C@@H](C(=O)N5CCCC5)C4)nc3[nH]2)n1` [Example 173, (R)—N,N-Dimethyl-6-(5-(3-(pyrrolidine-1-carbonyl)piperidin-1-yl)-3H-imidazo[4,5-b]pyridin-2-yl)picolinamide]: under setting [1], the IC50 turned out to be 1250 nM.

For the compound `O=C([C@@H]1CCCN(c2ccc3nc(-c4ccnc(C5CC5)n4)[nH]c3n2)C1)N1C[C@H]2C[C@@H]1CO2` [Example 174, (1R,4R)-2-Oxa-5-azabicyclo[2.2.1]heptan-5-yl((R)-1-(2-(2-cyclopropylpyrimidin-4-yl)-3H-imidazo[4,5-b]pyridin-5-yl)piperidin-3-yl)methanone], the IC50 under setting [1] was found to be 1170 nM.

Regarding `O=C([C@@H]1CCCN(c2ccc3nc(-c4ccnc(C5CC5)n4)[nH]c3n2)C1)N1CC(F)(F)C1` [Example 176, (R)-(1-(2-(2-Cyclopropylpyrimidin-4-yl)-3H-imidazo[4,5-b]pyridin-5-yl)piperidin-3-yl)(3,3-difluoroazetidin-1-yl)methanone], under setting [1], the IC50 came to 73.4 nM.

As to `C[C@H]1CO[C@@H](c2ccccn2)CN1c1ccc2nc(-c3cccc(Cl)c3)[nH]c2n1` [Example 177, (2R,5S)-4-(2-(3-Chlorophenyl)-3H-imidazo[4,5-b]pyridin-5-yl)-5-methyl-2-(pyridin-2-yl)morpholine], under setting [1], the concentration for half-maximal inhibition (IC50) was found to be 953 nM.

For the compound `CS(=O)(=O)c1cncc(-c2nc3ccc(N4CCC[C@@H](C(=O)N5CCCC5)C4)nc3[nH]2)c1` [Example 179, (R)-(1-(2-(5-(Methylsulfonyl)pyridin-3-yl)-3H-imidazo[4,5-b]pyridin-5-yl)piperidin-3-yl)(pyrrolidin-1-yl)methanone], under setting [1], the half-maximal inhibitory concentration (IC50) was determined as 512 nM.

On to `C[C@@H]1CCN(c2ccc3nc(-c4cccc(OC(F)F)c4)[nH]c3n2)C[C@@H]1C(=O)N(C)C` [Example 180, (3R,4R)-1-(2-(3-(Difluoromethoxy)phenyl)-3H-imidazo[4,5-b]pyridin-5-yl)-N,N,4-trimethylpiperidine-3-carboxamide], for which the IC50 under setting [1] was 434 nM.

`C[C@H]1CCN(c2ccc3nc(-c4cccc(OC(F)F)c4)[nH]c3n2)C[C@H]1C(=O)N(C)C` [Example 181, (3S,4S)-1-(2-(3-(difluoromethoxy)phenyl)-3H-imidazo[4,5-b]pyridin-5-yl)-N,N,4-trimethylpiperidine-3-carboxamide]: the IC50 turned out to be 17400 nM.

Take `O=C([C@@H]1CCCN(c2ccc3nc(-c4cccc(C5CC5)n4)[nH]c3n2)C1)N1CCCC1` [Example 182, (R)-(1-(2-(6-Cyclopropylpyridin-2-yl)-3H-imidazo[4,5-b]pyridin-5-yl)piperidin-3-yl)(pyrrolidin-1-yl)methanone]: the IC50 under setting [1] worked out at 6.03 nM.

Take `O=C([C@@H]1CCCN(c2ccc3nc(-c4cncc(C5CC5)c4)[nH]c3n2)C1)N1CCCC1` [Example 183, (R)-(1-(2-(5-Cyclopropylpyridin-3-yl)-3H-imidazo[4,5-b]pyridin-5-yl)piperidin-3-yl)(pyrrolidin-1-yl)methanone]: the half-maximal inhibitory concentration (IC50) under setting [1] stood at 37.5 nM.

Take `O=C([C@@H]1CCCN(c2ccc3nc(-c4cccc(C5CC5)n4)[nH]c3n2)C1)N1CCC(F)(F)C1` [Example 184, (R)-(1-(2-(6-Cyclopropylpyridin-2-yl)-3H-imidazo[4,5-b]pyridin-5-yl)piperidin-3-yl)(3,3-difluoropyrrolidin-1-yl)methanone]: the IC50 under setting [1] stood at 15.2 nM.

Turning to `CCN(C)C(=O)[C@@H]1CCCN(c2ccc3nc(-c4ccnc(C5CC5)n4)[nH]c3n2)C1` [Example 185, (R)-1-(2-(2-Cyclopropylpyrimidin-4-yl)-3H-imidazo[4,5-b]pyridin-5-yl)-N-ethyl-N-methylpiperidine-3-carboxamide], the IC50 under setting [1] stood at 231 nM.

Take `O=C([C@H]1CN(c2ccc3nc(-c4cccc(C5CC5)n4)[nH]c3n2)CCO1)N1CCOCC1` [Example 186, (R)-(4-(2-(6-Cyclopropylpyridin-2-yl)-3H-imidazo[4,5-b]pyridin-5-yl)morpholin-2-yl)(morpholino)methanone]: the concentration for half-maximal inhibition (IC50) under setting [1] amounted to 162 nM.

In the case of `O=C([C@@H]1CCCN(c2ncc3nc(-c4cccc(C(F)(F)F)n4)[nH]c3n2)C1)N1CCCC1` [Example 187, (R)-Pyrrolidin-1-yl(1-(8-(6-(trifluoromethyl)pyridin-2-yl)-9H-purin-2-yl)piperidin-3-yl)methanone], the 50% inhibitory concentration (IC50) under setting [1] turned out to be 10.5 nM.

For the compound `CC(C)(c1nc2ccc(N3CCC[C@@H](C(=O)N4CCCC4)C3)nc2[nH]1)n1cc(Cl)cn1` [Example 188], the half-maximal inhibitory concentration (IC50) under setting [1] is 31.4 nM.

Take `CSc1cnn(C2(c3nc4ccc(N5CCC[C@@H](C(=O)N6CCCC6)C5)nc4[nH]3)CC2)c1` [Example 189, (R)-(1-(2-(1-(4-(Methylthio)-1H-pyrazol-1-yl)cyclopropyl)-3H-imidazo[4,5-b]pyridin-5-yl)piperidin-3-yl)(pyrrolidin-1-yl)methanone]: the concentration for half-maximal inhibition (IC50) under setting [1] turned out to be 34.1 nM.

Turning to `COc1cnn(C2(c3nc4ccc(N5CCC[C@@H](C(=O)N6CCCC6)C5)nc4[nH]3)CC2)c1` [Example 194, (R)-(1-(2-(1-(4-Methoxy-1H-pyrazol-1-yl)cyclopropyl)-3H-imidazo[4,5-b]pyridin-5-yl)piperidin-3-yl)(pyrrolidin-1-yl)methanone], under setting [1], the concentration for half-maximal inhibition (IC50) was determined as 101 nM.

Regarding `O=C([C@@H]1CCCN(c2ccc3nc(C4(c5coc(C6CC6)n5)CC4)[nH]c3n2)C1)N1CCCC1` [Example 195, (R)-(1-(2-(1-(2-cyclopropyloxazol-4-yl)cyclopropyl)-3H-imidazo[4,5-b]pyridin-5-yl)piperidin-3-yl)(pyrrolidin-1-yl)methanone], under setting [1], the IC50 amounted to 142 nM.

With `C[C@@H](c1nc2ccc(N3CCC[C@@H](C(=O)N4CCCC4)C3)nc2[nH]1)n1cc(Cl)cn1` [Example 196-B, ((R)-1-(2-((S)-1-(4-Chloro-1H-pyrazol-1-yl)ethyl)-3H-imidazo[4,5-b]pyridin-5-yl)piperidin-3-yl)(pyrrolidin-1-yl)methanone hydrochloride], where the note is “geometric mean, background for complete inhibition of DGAT2 obtained with 50 μM (1R,2R)-2-({3′-Fluoro-4′-[(6-fluoro-1,3-benzothiazol-2-yl)amino]-1,1′-biphenyl-4-yl}carbonyl)cyclopentanecarboxylic acid, hydrochloride”, the IC50 was 38.5 nM.

For `O=C([C@@H]1CCCN(c2ccc3nc(C4(n5cc(Cl)cn5)CC4)[nH]c3n2)C1)N1CC(F)(F)C1` [Example 200, (R)-(1-(2-(1-(4-Chloro-1H-pyrazol-1-yl)cyclopropyl)-3H-imidazo[4,5-b]pyridin-5-yl)piperidin-3-yl)(3,3-difluoroazetidin-1-yl)methanone], the half-maximal inhibitory concentration (IC50) under setting [1] came out at 74.2 nM.

For the compound `C[C@@H]1CCCN1C(=O)[C@@H]1CCCN(c2ccc3nc(C4(n5cc(Cl)cn5)CC4)[nH]c3n2)C1` [Example 201, ((R)-1-(2-(1-(4-Chloro-1H-pyrazol-1-yl)cyclopropyl)-3H-imidazo[4,5-b]pyridin-5-yl)piperidin-3-yl)((R)-2-methylpyrrolidin-1-yl)methanone], the concentration for half-maximal inhibition (IC50) under setting [1] came to 91 nM.

`C[C@H]1CCCN1C(=O)[C@@H]1CCCN(c2ccc3nc(C4(n5cc(Cl)cn5)CC4)[nH]c3n2)C1` [Example 202, ((R)-1-(2-(1-(4-Chloro-1H-pyrazol-1-yl)cyclopropyl)-3H-imidazo[4,5-b]pyridin-5-yl)piperidin-3-yl)((S)-2-methylpyrrolidin-1-yl)methanone]: the concentration for half-maximal inhibition (IC50) under setting [1] worked out at 321 nM.

Consider `O=C([C@@H]1CCCN(c2ccc3nc(C4(c5cnccn5)CC4)[nH]c3n2)C1)N1CCCC1` [Example 203, (R)-(1-(2-(1-(Pyrazin-2-yl)cyclopropyl)-3H-imidazo[4,5-b]pyridin-5-yl)piperidin-3-yl)(pyrrolidin-1-yl)methanone], for which the IC50 under setting [1] turned out to be 176 nM.

`O=C([C@@H]1CCCN(c2ccc3nc(C4(c5ncccn5)CC4)[nH]c3n2)C1)N1CCCC1` [Example 204, (R)-(1-(2-(1-(Pyrimidin-2-yl)cyclopropyl)-3H-imidazo[4,5-b]pyridin-5-yl)piperidin-3-yl)(pyrrolidin-1-yl)methanone]: under setting [1], the half-maximal inhibitory concentration (IC50) stood at 656 nM.

With `O=C([C@@H]1CCCN(c2ccc3nc(C4(n5cc(Cl)cn5)CC4)[nH]c3n2)C1)N1CCC1` [Example 205, (R)-Azetidin-1-yl(1-(2-(1-(4-chloro-1H-pyrazol-1-yl)cyclopropyl)-3H-imidazo[4,5-b]pyridin-5-yl)piperidin-3-yl)methanone], the concentration for half-maximal inhibition (IC50) under setting [1] was 188 nM.

`O=C([C@@H]1CCCN(c2ccc3nc(C4(n5cc(Cl)cn5)CC4)[nH]c3n2)C1)N1CCOCC1` [Example 206, (R)-(1-(2-(1-(4-Chloro-1H-pyrazol-1-yl)cyclopropyl)-3H-imidazo[4,5-b]pyridin-5-yl)piperidin-3-yl)(morpholino)methanone]: the IC50 under setting [1] came out at 246 nM.

As for `C[C@@H]1CCN(c2ncc3nc(C4(n5cccn5)CC4)[nH]c3n2)C[C@@H]1C(=O)N1CCCC1` [Example 207, ((3R,4R)-1-(8-(1-(1H-Pyrazol-1-yl)cyclopropyl)-9H-purin-2-yl)-4-methylpiperidin-3-yl)(pyrrolidin-1-yl)methanone], the IC50 under setting [1] was 702 nM.

For the compound `C[C@H]1CCN(c2ncc3nc(C4(n5cccn5)CC4)[nH]c3n2)C[C@H]1C(=O)N1CCCC1` [Example 208, ((3S,4S)-1-(8-(1-(1H-pyrazol-1-yl)cyclopropyl)-9H-purin-2-yl)-4-methylpiperidin-3-yl)(pyrrolidin-1-yl)methanone], the half-maximal inhibitory concentration (IC50) was found to be 37400 nM.
